Results published in patent US11530181B2, “IL-6 inhibitors and methods of treatment” (University of Florida Research Foundation, Incorporated, priority 2018, dated 2022).

Legend:
[1] = system: SUM159 breast cancer cell line; test: MTT cell viability assay, SUM159; assay type: cell-based, human; settings: for inhibitory effect compared to parent compound LLM4: SUM159, 25 μM, 48 hours
Method: (§1) Human breast cancer cell lines MCF7, MDA-MB-231 and SUM159 were maintained in Dulbecco's modified Eagle medium (DMEM). Human pancreatic cancer cell line BxPC-3 was maintained in RPMI 1640 medium. Human pancreatic cancer cell line Capan-1 was maintained in Iscove's Modified Dulbecco's Medium (IMEM). All media were supplemented with 10% FBS and 1% penicillin/streptomycin, and cells were incubated in a humidified 37° C. incubator with 5% CO2. PE/CA-PJ49 cell line was purchased from external sources and maintained according to manufacturer's protocol.
(§2) Cell viability was evaluated by using the MTT assay in triple replicates in one experiment and repeated for three times. Cancer cells were seeded in 96-well plates at a density of 3,000 cells per well. The cells were incubated at 37° C. for a period of 24 hours. Escalating concentrations of IL-6/gp130 inhibitors were added in triplicate to the plates in the presence of 10% FBS. After incubation for 48 or 72 hours, a stock solution of MTT (0.5 mg/ml) was then added to each well containing the treated cells, followed by incubation at 37° C. for 3 h. After removal of medium, the MTT dye was dissolved with spectrophotometric grade DMSO and the absorbance was read at 570 nm. The IC50 value is determined by interpolation based on the absorbance value halfway between positive and negative controls.

[2] = system: BxPC-3 pancreatic cancer cell line; test: MTT cell viability assay, BxPC-3; assay type: cell-based, human; settings: for inhibitory effect compared to parent compound LLM4: BxPC-3, 25 μM, 48 hours; for IC50: Homo sapiens, BxPC-3, Table 7
Method: as §1
as §2, with “controls. In the experiment of LLM4 showing higher efficacy in cancer cells with higher levels of IL-6, instead of using medium with 10% FBS, DMEM with 0% FBS was used in order to eliminate the influence of trace amounts of growth factors and cytokines in FBS.” for “controls.”

[3] = system: multiple myeloma cell line U266; test: Cell viability assay, U266; assay type: cell-based, human
Method: as §2, with “controls. In the experiment of LLM4 showing higher efficacy in cancer cells with higher levels of IL-6, instead of using medium with 10% FBS, DMEM with 0% FBS was used in order to eliminate the influence of trace amounts of growth factors and cytokines in FBS.” for “controls.”
It was reported in multiple myeloma cell line U266 that IL-6 is also elevated and of great importance for cancer progression [Jernberg W, Pettersson M, Carlsson M, et al. Increase in interleukin 6 (IL-6) and IL-6 receptor expression in a human multiple myeloma cell line, U-266, during long-term in vitro culture and the development of a possible autocrine IL-6 loop 1. Leukemia. 1992, 4, 310-318]. These novel IL-6/gp130 inhibitors were tested in U266 cells at a concentration of 25 μM for an incubation time of 48 and 72 hours. MDL16 and LLM4 were used as control compounds.

[4] = system: IL-6 induced STAT3 phosphorylation; test: Western blot, IL-6 induced STAT3 phosphorylation in MCF7; assay type: cell-based, human; settings: MCF7, 1-4 μM, 5 h, IL-6 50 ng/ml
Method: Cells were harvested and lysed in cold radioimmunoprecipitation assay (RIPA) lysis buffer containing proteasome inhibitor cocktail and phosphatase inhibitor cocktail. The protein concentrations were determined using the BCA Protein Assay kit. After adding the loading buffer and boiling at 95° C. for 10 minutes, equivalent amounts of proteins were loaded on and separated by SDS-PAGE, and then were transferred to PVDF membranes. Membranes were probed with primary antibodies (1:1000) against phospho-STAT3 (Tyr705), STAT3, phospho-STAT1 (Tyr701), STAT1, phospho-STAT6 (Tyr 641), STAT6, and GAPDH, respectively, and horseradish peroxidase (HRP)-conjugated secondary antibody (1:10000) (Cell Signaling Technology, Beverly, Mass.). Membranes were analyzed using Enhanced Chemiluminescence Plus reagents and either scanned with the Storm Scanner (Amersham Pharmacia Biotech, Inc., Piscataway, N.J.) or imaged with ChemiDoc MP imaging system (Bio-Rad, Hercules, Calif.). For cytokine induction of STAT3 phosphorylation, MCF-7 breast cancer cells were seeded in 10 cm plates (1 million cells per plate) and allowed to adhere overnight followed by serum-starvation. […] After designated hours, LLM-418 treated and untreated cells were stimulated by IL-6, LIF, and OSM (50 ng/mL). The cells were harvested after 30 minutes and analyzed by Western blot.
MCF7 breast cancer cells were seeded in 10 cm plates (1 million cells per plate) and allowed to adhere overnight. The following day, the cells were serum-starved. The cells were then left untreated or treated with LLM4 (5-20 μM). After designated hours, the LLM4 treated and untreated cells were stimulated by IL-6, LIF, OSM, CNTF, CT-1, IL-11, IL-4 or INF-γ (50 ng/ml). The cells were harvested after 30 minutes and analyzed by western blotting.

[5] = target: T1, gp130-D1-D3 (Homo sapiens, UniProt P40189); test: SPR direct binding to immobilized gp130-D1-D3 (CM5 chip); settings: for Kd: SPR, gp130-D1-D3, linear regression at low concentrations, 25% Rmax; for ΔGexp: experimental binding energy from SPR KD
T1 construct: residues 1-301, the numbering system is based on PDB 3L5H, which is the mature form of gp130; tandem TFH purification tag (includes FLAG, as purified on anti-FLAG M2 agarose) (C); made in house; host or cells: Hi5 insect cells (baculovirus; virus generated in sf9)
T1 sequence (P40189 23-323): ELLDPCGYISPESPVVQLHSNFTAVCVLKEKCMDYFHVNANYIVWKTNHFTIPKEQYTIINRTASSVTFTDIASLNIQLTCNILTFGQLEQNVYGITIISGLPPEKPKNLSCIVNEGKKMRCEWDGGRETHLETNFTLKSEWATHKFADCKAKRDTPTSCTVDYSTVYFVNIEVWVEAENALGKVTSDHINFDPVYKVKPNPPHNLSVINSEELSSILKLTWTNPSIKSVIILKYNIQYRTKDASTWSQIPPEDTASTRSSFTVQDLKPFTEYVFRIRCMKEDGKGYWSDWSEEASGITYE

[6] = target: Extracellular Domain of gp130 (Homo sapiens, UniProt P40189); settings: literature value; read-out: reported binding affinity; cited from earlier work
Extracellular Domain of gp130, sequence (P40189 23-619 limits assumed): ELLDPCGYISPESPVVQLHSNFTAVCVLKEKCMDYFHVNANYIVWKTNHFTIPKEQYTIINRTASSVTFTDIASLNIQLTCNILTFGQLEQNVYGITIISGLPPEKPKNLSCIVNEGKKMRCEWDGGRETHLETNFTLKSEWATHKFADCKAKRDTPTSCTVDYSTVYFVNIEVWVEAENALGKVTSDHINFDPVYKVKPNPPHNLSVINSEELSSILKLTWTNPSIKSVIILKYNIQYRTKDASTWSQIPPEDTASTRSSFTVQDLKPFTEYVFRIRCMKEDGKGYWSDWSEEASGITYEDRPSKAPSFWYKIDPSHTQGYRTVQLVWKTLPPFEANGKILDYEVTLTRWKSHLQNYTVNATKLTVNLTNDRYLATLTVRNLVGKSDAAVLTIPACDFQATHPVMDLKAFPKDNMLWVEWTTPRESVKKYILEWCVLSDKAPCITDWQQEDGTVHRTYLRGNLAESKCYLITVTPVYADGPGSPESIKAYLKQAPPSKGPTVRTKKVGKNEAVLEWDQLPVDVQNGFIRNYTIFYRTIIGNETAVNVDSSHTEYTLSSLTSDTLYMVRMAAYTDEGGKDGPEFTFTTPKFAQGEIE

[7] = system: MDA-MB-231 breast cancer cell line; test: MTT cell viability assay, MDA-MB-231; assay type: cell-based, human; settings: MDA-MB-231 (medium IL-6), 48 h, 0% FBS medium
Method: as §1
as §2, with “Escalating concentrations of IL-6/gp130 inhibitors were added in triplicate to the plates in the presence of 10% FBS.” left out, “controls. […]” for “controls.”

[8] = system: MCF7 breast cancer cell line; test: MTT cell viability assay, MCF7; assay type: cell-based, human; settings: MCF7 (low IL-6), 48 h, 0% FBS medium
Method: as §1
as §2, with “Escalating concentrations of IL-6/gp130 inhibitors were added in triplicate to the plates in the presence of 10% FBS.” left out, “controls. […]” for “controls.”

[9] = system: PE/CA-PJ49 cell line; test: Inhibitory activity in PTPRD mutant cell line PE/CA-PJ49; assay type: cell-based; settings: PE/CA-PJ49, 48 h
Method: as §1
as §2, with “controls. In the experiment of LLM4 showing higher efficacy in cancer cells with higher levels of IL-6, instead of using medium with 10% FBS, DMEM with 0% FBS was used in order to eliminate the influence of trace amounts of growth factors and cytokines in FBS.” for “controls.”
Protein tyrosine […] receptor type D (PTPRD) is reported to serve as a tumor suppressor in various human cancers [Peyser et. al, PLoS One (2015) 10(8)]. PTPRD mutation is also known to be associated with increased STAT3 expression [Peyser et. al, PLoS One (2015) 10(8)]. Table 8 captures the inhibitory activities of various compounds in the PTPRD mutant cell line, PE/CA-PJ49.

[10] = system: SUM159 breast cancer cell line; test: MTT cell viability assay, SUM159; assay type: cell-based, human; settings: SUM159 (high IL-6), 48 h, 0% FBS medium
[11] = SUM159 human breast cancer cell line, MTT

O=C(Nc1ccccc1-c1ccn[nH]1)c1ccc(OCCCN2CCCCC2)cc1 [LLM417, N-(2-(1H-pyrazol-5-yl)phenyl)-4-(3-(piperidin-1-yl)propoxy)benzamide]
inhibitory effect compared to parent compound LLM4 [1]: comparable or slightly better at inhibition | inhibitory effect compared to parent compound LLM4 [2]: comparable or slightly better at inhibition

O=C(Nc1cccc(-c2ccn[nH]2)c1)c1ccc(OCCCN2CCCCC2)cc1 [LLM41, N-(3-(1H-pyrazol-5-yl)phenyl)-4-(3-(piperidin-1-yl)propoxy)benzamide]
IC50 ([3]; Homo sapiens, U-266, U266, 72 h): 5.4 µM | inhibitory effect compared to parent compound LLM4 ([3]; U266, 25 μM, 48 and 72 hours): greater inhibitory effects | inhibition of IL-6 induced STAT3 phosphorylation [4]: inhibited STAT3 phosphorylation stimulated by IL-6 in MCF7 cells in a dose dependent manner | IC50 ([1]; Homo sapiens, SUM159, SUM159, Table 7): 14 µM | inhibitory effect compared to parent compound LLM4 [1]: comparable or slightly better at inhibition | inhibitory effect compared to parent compound LLM4 [2]: comparable or slightly better at inhibition | IC50 [2]: 13 µM | Kd [5]: 21.6 µM | ΔGexp [5]: -6.36 kcal/mol

O=C(Nc1cc(F)ccc1-n1cccc1)c1ccc(OCCCCc2ccccc2)cc1 [LLM7, N-(5-fluoro-2-(1H-pyrrol-1-yl)phenyl)-4-(4-phenylbutoxy)benzamide]
IC50 ([1]; Homo sapiens, SUM159, SUM159 human breast cancer cell line, MTT): 58.7 ± 6.3 µM

O=C(Nc1cc(F)ccc1-n1cccc1)c1ccc(OCCc2ccccc2)cc1 [LLM5, N-(5-fluoro-2-(1H-pyrrol-1-yl)phenyl)-4-phenethoxybenzamide]
IC50 [1, 11]: 64.4 ± 6.9 µM

O=C(Nc1cc(F)ccc1-n1cccc1)c1ccc(OCCN2CCCCC2)cc1 [LLM3, N-(5-fluoro-2-(1H-pyrrol-1-yl)phenyl)-4-(2-(piperidin-1-yl)ethoxy)benzamide]
IC50 [1, 11]: 31.4 ± 4.7 µM

CCCCC1=C(C)C(=O)[C@](C)(CN2c3ccccc3[C@]3(O)CCOC23)C1=O (stereo partly drawn) [MDL-A, Madindoline A, reference compound]
Kd [6]: 288 µM | Kd [5]: 330 µM | ΔGexp [5]: -4.75 kcal/mol

O=C(NNc1nc2cc(F)ccc2n2cccc12)c1cnccn1 [SC144, reference compound]
IC50 [7]: 1.22 µM | IC50 [8]: 4.7 µM | IC50 [9]: 0.691 ± 0.064 µM | IC50 [10]: 1.08 µM

CN(C)C(=O)Oc1cccc2c1C(=O)c1cccc(S(N)(=O)=O)c1C2=O [LLL12B]
IC50 [9]: 0.0159 ± 0.00371 µM

Cc1c(-c2ccc(O)cc2)n(Cc2ccc(OCCN3CCCCCC3)cc2)c2ccc(O)cc12 [Bazedoxifene, reference compound]
IC50 ([1]; Homo sapiens, SUM159, Table 7): 4.6 µM | IC50 [2]: 1.8 µM

O=C(Nc1cccc(-c2ccn[nH]2)c1)c1cccc(OCCN2CCCCC2)c1 [LLM46, N-(3-(1H-pyrazol-5-yl)phenyl)-3-(2-(piperidin-1-yl)ethoxy)benzamide]
inhibitory effect compared to parent compound LLM4 [1]: comparable or slightly better at inhibition | inhibitory effect compared to parent compound LLM4 [2]: comparable or slightly better at inhibition

NS(=O)(=O)c1cccc2c1C(=O)c1cccc(O)c1C2=O [LLL12]
IC50 [9]: 0.019 ± 0.00283 µM
